Several values for one entry are separate records, joined by “and”; a condition that tells them apart may be missing. Identical values can stand only once. Like-named read-outs stand apart in the source and are kept apart here.
Columns and labels:
[1] = system: LPS induced TNF-α release from murine RAW 264.7 macrophage-like cells; test: cells; type: cell-based
Balb/c mice = conditions: mouse, in vivo
[2] = system: TNF production by LPS-stimulated wild type peritoneal macrophages; test: TNF production by wild type peritoneal macrophages; type: cell-based, mouse; conditions: 4 h, ELISA, mean ± s.e.m., n = 8
[3] = system: TNF production by LPS-stimulated nicotinic acetylcholine receptor α7 subunit knockout peritoneal macrophages; type: cell-based, mouse
macrophages = conditions: data not shown
[4] = biological target: α-bungarotoxin-binding nicotinic receptors on primary human macrophages (Homo sapiens, UniProt P36544)
C57 B/6 mice [5] = conditions: mouse, in vivo
C57 B/6 mice [6] = conditions: mouse, in vivo; remark: listed apart in the source
[7] = agonist 1 μM added 5-10 min before LPS (100 ng/ml)
[8] = agonist 10 μM added 5-10 min before LPS (100 ng/ml)

Sequence of α-bungarotoxin-binding nicotinic receptors on primary human macrophages (P36544 23-502): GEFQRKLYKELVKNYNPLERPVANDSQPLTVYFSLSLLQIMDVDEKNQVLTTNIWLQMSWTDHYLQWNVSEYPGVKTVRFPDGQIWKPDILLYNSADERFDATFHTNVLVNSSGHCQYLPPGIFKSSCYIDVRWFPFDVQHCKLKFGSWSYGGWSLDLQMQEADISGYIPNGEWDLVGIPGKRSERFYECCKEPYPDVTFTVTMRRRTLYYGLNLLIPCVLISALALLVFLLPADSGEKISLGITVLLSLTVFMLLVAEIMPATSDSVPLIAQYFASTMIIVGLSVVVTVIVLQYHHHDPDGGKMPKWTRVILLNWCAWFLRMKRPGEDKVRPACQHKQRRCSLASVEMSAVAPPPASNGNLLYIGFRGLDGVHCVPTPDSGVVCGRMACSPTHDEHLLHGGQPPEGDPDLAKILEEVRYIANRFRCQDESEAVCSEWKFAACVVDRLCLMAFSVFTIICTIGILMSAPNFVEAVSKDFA

COc1ccc(/C=C2\CCCN=C2c2cccnc2)c(OC)c1 [Compound (V), 3-2,4-dimethoxybenzylidene anabaseine]
inhibition of TNF-α release [1]: dose dependently inhibits | mice survived on Day 14 (Balb/c mice): 91%

CN1CCCC1c1cccnc1 (stereo not shown) [nicotine]
TNF [2, 7]: 5.2 ± 0.9 ng/mL | TNF [2, 8]: 7.3 ± 1.0 ng/mL | inhibition of TNF-α release ([1]; 0.001-100 uM added five minutes before LPS (500 ng/ml), 4 hours, ELISA, FIG. 7): dose dependently inhibits | inhibition of LPS-induced TNF release in RAW264.7 ([1]; data not shown): significantly inhibit | TNF [3]: 17.8 ± 0.6 ng/mL and 17.4 ± 2.9 ng/mL | TNF production by α7 knockout macrophages in the presence of the agonist [3]: produced TNF normally | calcium influx (macrophages): induces transient calcium influx | effect of pretreatment on intensity of α-bungarotoxin binding [4]: markedly reduced

COc1cc(O)ccc1/C=C1\CCCN=C1c1cccnc1 [Compound (VI), 3-(4-hydroxy-2-methoxybenzylidene)anabaseine]
percent inhibition of TNF-α [1]: dose dependently inhibits | IC50 ([1]; Mus musculus, RAW264.7, read-out: estimated IC50, inhibition of TNF-α): ~900 nM | decrease of the level of circulating TNF-α compared to vehicle control (C57 B/6 mice [5]): approximately 50% | colon length compared to control mice (C57 B/6 mice [6]): slightly greater | colon weight (wet weight) compared to control condition (C57 B/6 mice [6]): decreased | mice survived on Day 14 (Balb/c mice): 82%

α-bungarotoxin
binding of α-bungarotoxin on the macrophage surface [4]: Strong binding

CC(=O)OCC[N+](C)(C)C [Ach, acetylcholine]
TNF [2, 7]: 10.3 ± 1.1 ng/mL | TNF [2, 8]: 5.7 ± 0.9 ng/mL | TNF [3]: 20.4 ± 3.8 ng/mL and 21.4 ± 2.4 ng/mL

O=C1NCC2(CN3CCC2CC3)O1 (single isomer, unassigned; (-)) [Compound (VII), (−)-spiro[1-azabicyclo[2.2.2]octane-3,5′-oxazolidin-2′-one]]
TNF-α release from RAW 264.7 cells at the higher concentrations [1]: inhibit TNF-α release | decrease of TNF-α release compared to control cells [1]: more than four times

Source: patent publication US9592228B2, “Treatment of inflammation using alpha 7 receptor-binding agonists” (THE FEINSTEIN INSTITUTE FOR MEDICAL RESEARCH, priority 2002, dated 2017)
